Experimental data reported in patent US6440990B1, “O-alkylated rapamycin derivatives and their use, particularly as immunosuppressants” (Novartis AG, priority 1992, dated 2002).

Experiments:
[1] = system: Balb/c spleen cells stimulated with irradiated CBA spleen cells; details: cited from earlier work
IL-2 transcription = details: IL-2 reporter gene assay; cited from earlier work
[2] = system: interleukin-6 (IL-6)-dependent mouse hybridoma cell line; details: cited from earlier work
[3] = Standard in vitro assays of immunosuppressivity in comparison to FK506 and rapamycin; type: cell-based
Description: This can be shown in standard in vitro assays in comparison to FK506 and rapamycin. […] Nonimmunosuppressivity can also be shown in the in vivo models 1-7 above.

Molecule | inhibition of the mixed lymphocyte reaction (in words) [1] | inhibition of IL-2 transcription (in words) (IL-2 transcription) | inhibition of IL-6 dependent T-cell proliferation (in words) [2] | immunosuppressivity (in words) [3]
Rapamycin | very potent inhibitors | not active | strongly inhibits | –
CO[C@H]1C[C@@H]2CC[C@@H](C)[C@@](O)(O2)C(=O)C(=O)N2CCCC[C@H]2C(=O)O[C@H]([C@H](C)C[C@@H]2CC[C@@H](O)[C@H](OC)C2)CC(=O)[C@H](C)/C=C(\C)[C@@H](OC)[C@@H](OC)C(=O)[C@H](C)C[C@H](C)/C=C/C=C/C=C/1C [Example 21, 28-O-Methyl-rapamycin] | – | – | – | not immunosuppressive
